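The concentration for 50% growth inhibition is given as GI50. TGI denotes the concentration required for complete inhibition of growth.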
Experiments:
Experiment in all cases: growth of human tumour cells (NCI), 384-well format
786-0 renal = system: 786-0 renal
A498 renal = system: A498 renal
A549 NSCLC = system: A549 NSCLC
ACHN renal = system: ACHN renal
BT-549 breast = system: BT-549 breast
CAKI-1 renal = system: CAKI-1 renal
CCRF-CEM leukemia = system: CCRF-CEM leukemia
COLO 205 colon = system: COLO 205 colon
DU-145 prostate = system: DU-145 prostate
EKVX NSCLC = system: EKVX NSCLC
HCC-2998 colon = system: HCC-2998 colon
HCT-116 colon = system: HCT-116 colon
HCT-15 colon = system: HCT-15 colon
HL-60(TB) leukemia = system: HL-60(TB) leukemia
HOP-62 NSCLC = system: HOP-62 NSCLC
HOP-92 NSCLC = system: HOP-92 NSCLC
HS 578T breast = system: HS 578T breast
HT29 colon = system: HT29 colon
IGROV1 ovarian = system: IGROV1 ovarian
K-562 leukemia = system: K-562 leukemia
KM12 colon = system: KM12 colon
LOX IMVI melanoma = system: LOX IMVI melanoma
M14 melanoma = system: M14 melanoma
MALME-3M melanoma = system: MALME-3M melanoma
MCF7 breast = system: MCF7 breast
MDA-MB-231 breast = system: MDA-MB-231 breast
MDA-MB-435 melanoma = system: MDA-MB-435 melanoma
MDA-MB-468 breast = system: MDA-MB-468 breast
MOLT-4 leukemia = system: MOLT-4 leukemia
NCI-H226 lung = system: NCI-H226 lung
NCI-H23 lung = system: NCI-H23 lung
NCI-H322M lung = system: NCI-H322M lung
NCI-H460 NSCLC = system: NCI-H460 NSCLC
NCI-H522 lung = system: NCI-H522 lung
NCI/ADR-RES ovarian = system: NCI/ADR-RES ovarian
OVCAR-3 ovarian = system: OVCAR-3 ovarian
OVCAR-4 ovarian = system: OVCAR-4 ovarian
OVCAR-5 ovarian = system: OVCAR-5 ovarian
OVCAR-8 ovarian = system: OVCAR-8 ovarian
PC-3 prostate = system: PC-3 prostate
RPMI-8226 leukemia = system: RPMI-8226 leukemia
RXF 393 renal = system: RXF 393 renal
SF-268 CNS = system: SF-268 CNS
SF-295 CNS = system: SF-295 CNS
SF-539 CNS = system: SF-539 CNS
SK-MEL-28 melanoma = system: SK-MEL-28 melanoma
SK-MEL-5 melanoma = system: SK-MEL-5 melanoma
SK-OV-3 ovarian = system: SK-OV-3 ovarian
SN12C renal = system: SN12C renal
SNB-19 CNS = system: SNB-19 CNS
SNB-75 CNS = system: SNB-75 CNS
SW-620 colon = system: SW-620 colon
T-47D breast = system: T-47D breast
TK-10 renal = system: TK-10 renal
U251 glioblastoma = system: U251 glioblastoma
UACC-257 melanoma = system: UACC-257 melanoma
UACC-62 melanoma = system: UACC-62 melanoma
UO-31 renal = system: UO-31 renal

CC[C@H](C)n1cc(C)c2c(C(=O)NCc3c(C)cc(C)[nH]c3=O)cc(-c3ccc(N4CCNCC4)nc3)cc21
GI50 ([…]-0 renal): 1710 nM | TGI (786-0 renal): 3100 nM | GI50 (A498 renal): 1940 nM | TGI (A498 renal): 3430 nM | GI50 (A549 NSCLC): 1960 nM | TGI (A549 NSCLC): 3920 nM | GI50 (ACHN renal): 4230 nM | TGI (ACHN renal): 15600 nM | GI50 (BT-549 breast): 1670 nM | TGI (BT-549 breast): 3050 nM | GI50 (CAKI-1 renal): 1760 nM | TGI (CAKI-1 renal): 3170 nM | GI50 (CCRF-CEM leukemia): 1530 nM | TGI (CCRF-CEM leukemia): 2870 nM | GI50 (COLO 205 colon): 1710 nM | TGI (COLO 205 colon): 3100 nM | GI50 (DU-145 prostate): 3830 nM | TGI (DU-145 prostate): 12100 nM | GI50 (EKVX NSCLC): 1830 nM | TGI (EKVX NSCLC): 3490 nM | GI50 (HCC-2998 colon): 1600 nM | TGI (HCC-2998 colon): 2980 nM | GI50 (HCT-116 colon): 1790 nM | TGI (HCT-116 colon): 3230 nM | GI50 (HCT-15 colon): 1860 nM | TGI (HCT-15 colon): 3480 nM | GI50 (HL-60(TB) leukemia): 2030 nM | TGI (HL-60(TB) leukemia): 3470 nM | GI50 (HOP-62 NSCLC): 1640 nM | TGI (HOP-62 NSCLC): 3020 nM | GI50 (HOP-92 NSCLC): 1830 nM | TGI (HOP-92 NSCLC): 3250 nM | GI50 (HS 578T breast): 1410 nM | TGI (HS 578T breast): 2710 nM | GI50 (HT29 colon): 1680 nM | TGI (HT29 colon): 3110 nM | GI50 (IGROV1 ovarian): 1540 nM | TGI (IGROV1 ovarian): 3670 nM | GI50 (K-562 leukemia): 1480 nM | TGI (K-562 leukemia): 2810 nM | GI50 (KM12 colon): 1790 nM | TGI (KM12 colon): 3320 nM | GI50 (LOX IMVI melanoma): 1640 nM | TGI (LOX IMVI melanoma): 3020 nM | GI50 (M14 melanoma): 1750 nM | TGI (M14 melanoma): 3140 nM | GI50 (MALME-3M melanoma): 1610 nM | TGI (MALME-3M melanoma): 2970 nM | GI50 (MCF7 breast): 1520 nM | TGI (MCF7 breast): 2890 nM | GI50 (MDA-MB-231 breast): 1650 nM | TGI (MDA-MB-231 breast): 3060 nM | GI50 (MDA-MB-435 melanoma): 2070 nM | TGI (MDA-MB-435 melanoma): 3520 nM | GI50 (MDA-MB-468 breast): 1460 nM | TGI (MDA-MB-468 breast): 2790 nM | GI50 (MOLT-4 leukemia): 1630 nM | TGI (MOLT-4 leukemia): 2990 nM | GI50 (NCI-H226 lung): 3760 nM | TGI (NCI-H226 lung): 14500 nM | GI50 (NCI-H23 lung): 2890 nM | TGI (NCI-H23 lung): 7440 nM | GI50 (NCI-H322M lung): 1960 nM | TGI (NCI-H322M lung): 4070 nM | GI50 (NCI-H460 NSCLC): 1830 nM | TGI (NCI-H460 NSCLC): 3240 nM | GI50 (NCI-H522 lung): 1860 nM | TGI (NCI-H522 lung): 3270 nM | GI50 (NCI/ADR-RES ovarian): 17700 nM | TGI (NCI/ADR-RES ovarian): 31600 nM | GI50 (OVCAR-3 ovarian): 2250 nM | TGI (OVCAR-3 ovarian): 4390 nM | GI50 (OVCAR-4 ovarian): 3580 nM | TGI (OVCAR-4 ovarian): 10800 nM | GI50 (OVCAR-5 ovarian): 2620 nM | TGI (OVCAR-5 ovarian): 6440 nM | GI50 (OVCAR-8 ovarian): 1810 nM | TGI (OVCAR-8 ovarian): 3340 nM | GI50 (PC-3 prostate): 3230 nM | TGI (PC-3 prostate): 8540 nM | GI50 (RPMI-8226 leukemia): 1390 nM | TGI (RPMI-8226 leukemia): 2700 nM | GI50 (RXF 393 renal): 1730 nM | TGI (RXF 393 renal): 3140 nM | GI50 (SF-268 CNS): 1620 nM | TGI (SF-268 CNS): 2980 nM | GI50 (SF-295 CNS): 1870 nM | TGI (SF-295 CNS): 3320 nM | GI50 (SF-539 CNS): 1600 nM | TGI (SF-539 CNS): 2960 nM | GI50 (SK-MEL-28 melanoma): 2150 nM | TGI (SK-MEL-28 melanoma): 3600 nM | GI50 (SK-MEL-5 melanoma): 1630 nM | TGI (SK-MEL-5 melanoma): 2990 nM | GI50 (SK-OV-3 ovarian): 1860 nM | TGI (SK-OV-3 ovarian): 3300 nM | GI50 (SN12C renal): 1780 nM | TGI (SN12C renal): 3490 nM | GI50 (SNB-19 CNS): 2110 nM | TGI (SNB-19 CNS): 3750 nM | GI50 (SNB-75 CNS): 1350 nM | TGI (SNB-75 CNS): 2650 nM | GI50 (SW-620 colon): 1740 nM | TGI (SW-620 colon): 3120 nM | GI50 (T-47D breast): 1470 nM | TGI (T-47D breast): 2820 nM | GI50 (TK-10 renal): 1910 nM | TGI (TK-10 renal): 3640 nM | GI50 (U251 glioblastoma): 1830 nM | TGI (U251 glioblastoma): 3250 nM | GI50 (UACC-257 melanoma): 1630 nM | TGI (UACC-257 melanoma): 2990 nM | GI50 (UACC-62 melanoma): 1570 nM | TGI (UACC-62 melanoma): 2920 nM | GI50 (UO-31 renal): 13100 nM | TGI (UO-31 renal): 25800 nM

From PubChem BioAssay (NCI)
